Patent publication US11266701B2, “Synergistic combinations of caffeine, ginkgo biloba and beta-phenylethylamine” (TRINUTRA LTD., priority 2016, dated 2022)

System: murine macrophage cell line, RAW 264.7
Test: Nitric oxide (NO) release from LPS-induced RAW 264.7 cells (Griess Reagent System)
Type: cell-based
Protocol: 10^5 cells from a murine macrophage cell line, RAW 264.7, were seeded in 96-well plates in a medium containing 1% FBS, 1% Glutamine and 1% Pen/strep in DMEM. […] In addition, positive control cells were treated with 20 μM dexamethasone. Nitric oxide (NO) release was tested after incubation at 37° C., 5% CO2 using the Griess Reagent System. The method is based on the chemical diazotization reaction that was originally described by Griess in 1879, which uses sulfanilamide and N-1-napthylethylenediamine dihydrochloride (NED) under acidic (phosphoric acid) conditions. This system detects NO2^− in a variety of biological and experimental liquid matrices such as tissue culture medium that was tested in this study.

| SMILES | NO release as % of LPS-only negative control (FIG. 1: 240 μg/ml Ginkgo biloba, 500 μg/ml PEA, tested separately, LPS 5 ng/ml, 22 hours) | NO release as % of LPS-only negative control (FIG. 2: 240 μg/ml Ginkgo biloba, 120 μg/ml PEA, tested separately, LPS 5 ng/ml, 22 hours) | reduction in NO release (FIG. 3: 630 μg/ml PEA alone, C+G+P = 390 μg/ml caffeine + 40 μg/ml Ginkgo biloba + 630 μg/ml PEA) | effect on NO release (FIG. 4: 630 μg/ml PEA alone, binary combination 390 μg/ml caffeine + 630 μg/ml PEA) | NO release inhibition (FIG. 5: 40 μg/ml Ginkgo biloba, 630 μg/ml PEA, separately and as binary combination) | effect on NO release compared with dexamethasone positive control (FIGS. 3-6: 390 μg/ml caffeine, 40 μg/ml Ginkgo biloba, 630 μg/ml PEA) | effect on NO release (FIG. 1: 40 μg/ml caffeine tested separately, LPS 5 ng/ml, 22 hours) | effect on NO release (FIG. 2: 40 μg/ml caffeine tested separately, LPS 5 ng/ml, 22 hours) | effect on NO release (FIG. 3: 390 μg/ml caffeine, 40 μg/ml Ginkgo biloba, tested separately) |
| --- | --- | --- | --- | --- | --- | --- | --- | --- | --- |
| NCCc1ccccc1 [PEA, β-phenylethylamine] | ~85% | 95% | 20% | significant reduction | a certain degree of NO release inhibition | considerably less than that seen in the positive control |  |  |  |
| Cn1c(=O)c2c(ncn2C)n(C)c1=O [caffeine] |  |  |  |  |  |  | essentially without effect | essentially without effect | slight reduction |
